Assay: xn = mol fraction of the nth substance listed
Conditions: 100 kPa, Liquid; for speed of sound: Frequency=3 MHz, Linear variable-path acoustic interferometer; for mass density: Pycnometric method

C=C(C)C(=O)OCCCC [butyl 2-methyl-2-propenoate] + N#Cc1ccccc1
Conditions	mass density, 293.15 K [kg/m3]	mass density, 298.15 K [kg/m3]	mass density, 303.15 K [kg/m3]	speed of sound, 293.15 K [m/s]	speed of sound, 298.15 K [m/s]	speed of sound, 303.15 K [m/s]
x2 = 0	895.19	890.48	885.78	1241.7	1222.1	1202.4
x2 = 0.0721	900.73	896.08	891.44	1251.2	1231.8	1212.4
x2 = 0.1507	907.02	902.44	897.86	1262	1242.8	1223.6
x2 = 0.2142	912.32	907.79	903.26	1271.2	1252	1232.8
x2 = 0.2876	918.72	914.25	909.78	1282.1	1262.8	1243.7
x2 = 0.3511	924.51	920.1	915.69	1291.9	1272.6	1253.4
x2 = 0.4297	932.05	927.7	923.35	1304.6	1285.3	1266.3
x2 = 0.4985	939.01	934.73	930.45	1316.5	1297.1	1278.1
x2 = 0.5715	946.81	942.6	938.39	1330	1310.6	1291.6
x2 = 0.6465	955.32	951.19	947.06	1344.9	1325.7	1306.8
x2 = 0.7147	963.54	959.49	955.44	1359.7	1340.5	1321.9
x2 = 0.7784	971.67	967.7	963.73	1374.6	1355.6	1337.2
x2 = 0.8558	982.2	978.33	974.46	1394.4	1375.6	1357.7
x2 = 0.9326	993.43	989.66	985.89	1416.2	1397.6	1379.9

Source: the NIST ThermoML archive (doi:10.1016/j.jct.2018.12.031)
